Measurements reported in PubChem BioAssay (NCI).
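Each compound was tested at five concentrations against cells in 96-well plates for 48 hours. GI50 = concentration required for 50% inhibition of growth. TGI: total growth inhibition.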

Columns and labels:
Assay in all cases: NCI-60 cell line screen, 48 h
786-0 renal = test system: 786-0 renal
A498 renal = test system: A498 renal
A549 NSCLC = test system: A549 NSCLC
ACHN renal = test system: ACHN renal
BT-549 breast = test system: BT-549 breast
CAKI-1 renal = test system: CAKI-1 renal
CCRF-CEM leukemia = test system: CCRF-CEM leukemia
COLO 205 colon = test system: COLO 205 colon
DU-145 prostate = test system: DU-145 prostate
EKVX NSCLC = test system: EKVX NSCLC
HCC-2998 colon = test system: HCC-2998 colon
HCT-116 colon = test system: HCT-116 colon
HCT-15 colon = test system: HCT-15 colon
HL-60(TB) leukemia = test system: HL-60(TB) leukemia
HOP-62 NSCLC = test system: HOP-62 NSCLC
HOP-92 NSCLC = test system: HOP-92 NSCLC
HS 578T breast = test system: HS 578T breast
HT29 colon = test system: HT29 colon
IGROV1 ovarian = test system: IGROV1 ovarian
K-562 leukemia = test system: K-562 leukemia
KM12 colon = test system: KM12 colon
LOX IMVI melanoma = test system: LOX IMVI melanoma
M14 melanoma = test system: M14 melanoma
MALME-3M melanoma = test system: MALME-3M melanoma
MCF7 breast = test system: MCF7 breast
MDA-MB-231 breast = test system: MDA-MB-231 breast
MDA-MB-435 = test system: MDA-MB-435
MDA-MB-468 breast = test system: MDA-MB-468 breast
MOLT-4 leukemia = test system: MOLT-4 leukemia
NCI-H226 lung = test system: NCI-H226 lung
NCI-H23 lung = test system: NCI-H23 lung
NCI-H460 lung = test system: NCI-H460 lung
NCI-H522 lung = test system: NCI-H522 lung
NCI/ADR-RES ovarian = test system: NCI/ADR-RES ovarian
OVCAR-3 ovarian = test system: OVCAR-3 ovarian
OVCAR-4 ovarian = test system: OVCAR-4 ovarian
OVCAR-5 ovarian = test system: OVCAR-5 ovarian
OVCAR-8 ovarian = test system: OVCAR-8 ovarian
PC-3 prostate = test system: PC-3 prostate
RPMI-8226 leukemia = test system: RPMI-8226 leukemia
RXF 393 renal = test system: RXF 393 renal
SF-268 CNS = test system: SF-268 CNS
SF-295 CNS = test system: SF-295 CNS
SF-539 CNS = test system: SF-539 CNS
SK-MEL-2 melanoma = test system: SK-MEL-2 melanoma
SK-MEL-28 melanoma = test system: SK-MEL-28 melanoma
SK-MEL-5 melanoma = test system: SK-MEL-5 melanoma
SK-OV-3 ovarian = test system: SK-OV-3 ovarian
SN12C renal = test system: SN12C renal
SNB-19 CNS = test system: SNB-19 CNS
SNB-75 CNS = test system: SNB-75 CNS
SR leukemia = test system: SR leukemia
SW-620 colon = test system: SW-620 colon
T-47D breast = test system: T-47D breast
TK-10 renal = test system: TK-10 renal
U251 CNS = test system: U251 CNS
UACC-257 melanoma = test system: UACC-257 melanoma
UACC-62 melanoma = test system: UACC-62 melanoma
UO-31 renal = test system: UO-31 renal

COc1csc(/C=N/NC(=O)c2[nH]c3ccc(Br)cc3c2-c2ccccc2)c1
GI50 (786-0 renal): 85.1 nM | TGI (786-0 renal): 9690 nM | GI50 (A498 renal): 24000 nM | TGI (A498 renal): 70100 nM | GI50 (A549 NSCLC): 39.3 nM | TGI (A549 NSCLC): 22000 nM | GI50 (ACHN renal): 63.4 nM | TGI (ACHN renal): 34700 nM | GI50 (BT-549 breast): 30.5 nM | TGI (BT-549 breast): 354 nM | GI50 (CAKI-1 renal): 111 nM | TGI (CAKI-1 renal): 34600 nM | GI50 (CCRF-CEM leukemia): 29.9 nM | TGI (CCRF-CEM leukemia): 1020 nM | GI50 (COLO 205 colon): 26.5 nM | TGI (COLO 205 colon): 70.3 nM | GI50 (DU-145 prostate): 36.8 nM | TGI (DU-145 prostate): 11500 nM | GI50 (EKVX NSCLC): 86.3 nM | TGI (EKVX NSCLC): > 100000 nM | GI50 (HCC-2998 colon): 89.4 nM | TGI (HCC-2998 colon): 17300 nM | GI50 (HCT-116 colon): 30.5 nM | TGI (HCT-116 colon): 1150 nM | GI50 (HCT-15 colon): 33.2 nM | TGI (HCT-15 colon): 14800 nM | GI50 (HL-60(TB) leukemia): 30.2 nM | TGI (HL-60(TB) leukemia): 180 nM | GI50 (HOP-62 NSCLC): 79.4 nM | TGI (HOP-62 NSCLC): 10500 nM | GI50 (HOP-92 NSCLC): 920 nM | TGI (HOP-92 NSCLC): 51200 nM | GI50 (HS 578T breast): 34.6 nM | TGI (HS 578T breast): 22700 nM | GI50 (HT29 colon): 26.7 nM | TGI (HT29 colon): 69.1 nM | GI50 (IGROV1 ovarian): 77.8 nM | TGI (IGROV1 ovarian): 17800 nM | GI50 (K-562 leukemia): 30.5 nM | TGI (K-562 leukemia): 13100 nM | GI50 (KM12 colon): 37.3 nM | TGI (KM12 colon): 10900 nM | GI50 (LOX IMVI melanoma): 30.2 nM | TGI (LOX IMVI melanoma): 18900 nM | GI50 (M14 melanoma): 29.2 nM | TGI (M14 melanoma): 22500 nM | GI50 (MALME-3M melanoma): 45.3 nM | TGI (MALME-3M melanoma): 20500 nM | GI50 (MCF7 breast): 28 nM | TGI (MCF7 breast): 12700 nM | GI50 (MDA-MB-231 breast): 26.4 nM | TGI (MDA-MB-231 breast): 69.3 nM | GI50 (MDA-MB-435): 27.2 nM | TGI (MDA-MB-435): 98.5 nM | GI50 (MDA-MB-468 breast): 23.2 nM | TGI (MDA-MB-468 breast): 65.1 nM | GI50 (MOLT-4 leukemia): 46.3 nM | TGI (MOLT-4 leukemia): > 37400 nM | GI50 (NCI-H226 lung): 315 nM | TGI (NCI-H226 lung): 2160 nM | GI50 (NCI-H23 lung): 42.7 nM | TGI (NCI-H23 lung): 17000 nM | GI50 (NCI-H460 lung): 34.6 nM | TGI (NCI-H460 lung): 10600 nM | GI50 (NCI-H522 lung): < 13.8 nM | TGI (NCI-H522 lung): 41.3 nM | GI50 (NCI/ADR-RES ovarian): 23.8 nM | TGI (NCI/ADR-RES ovarian): 57.4 nM | GI50 (OVCAR-3 ovarian): 32.5 nM | TGI (OVCAR-3 ovarian): 720 nM | GI50 (OVCAR-4 ovarian): 5420 nM | TGI (OVCAR-4 ovarian): > 100000 nM | GI50 (OVCAR-5 ovarian): 47.5 nM | TGI (OVCAR-5 ovarian): 53200 nM | GI50 (OVCAR-8 ovarian): 28.9 nM | TGI (OVCAR-8 ovarian): 2000 nM | GI50 (PC-3 prostate): 57.5 nM | TGI (PC-3 prostate): 48800 nM | GI50 (RPMI-8226 leukemia): 39.1 nM | TGI (RPMI-8226 leukemia): 8210 nM | GI50 (RXF 393 renal): 49.6 nM | TGI (RXF 393 renal): 906 nM | GI50 (SF-268 CNS): 48.8 nM | TGI (SF-268 CNS): > 54200 nM | GI50 (SF-295 CNS): 30.3 nM | TGI (SF-295 CNS): 6480 nM | GI50 (SF-539 CNS): 21.7 nM | TGI (SF-539 CNS): 53.1 nM | GI50 (SK-MEL-2 melanoma): 35.5 nM | TGI (SK-MEL-2 melanoma): 389 nM | GI50 (SK-MEL-28 melanoma): 1730 nM | TGI (SK-MEL-28 melanoma): 46500 nM | GI50 (SK-MEL-5 melanoma): 26.3 nM | TGI (SK-MEL-5 melanoma): 76.9 nM | GI50 (SK-OV-3 ovarian): 51.9 nM | TGI (SK-OV-3 ovarian): 15500 nM | GI50 (SN12C renal): 38.7 nM | TGI (SN12C renal): 9100 nM | GI50 (SNB-19 CNS): 47 nM | TGI (SNB-19 CNS): 18400 nM | GI50 (SNB-75 CNS): 100 nM | TGI (SNB-75 CNS): 3780 nM | GI50 (SR leukemia): 23.5 nM | TGI (SR leukemia): 23300 nM | GI50 (SW-620 colon): 42.4 nM | TGI (SW-620 colon): > 100000 nM | GI50 (T-47D breast): 3890 nM | TGI (T-47D breast): > 95800 nM | GI50 (TK-10 renal): 13200 nM | TGI (TK-10 renal): 43600 nM | GI50 (U251 CNS): 32 nM | TGI (U251 CNS): 12300 nM | GI50 (UACC-257 melanoma): 635 nM | TGI (UACC-257 melanoma): > 67200 nM | GI50 (UACC-62 melanoma): 42 nM | TGI (UACC-62 melanoma): 16700 nM | GI50 (UO-31 renal): 60.2 nM | TGI (UO-31 renal): > 100000 nM
